Patent US20200140821A1, “EX VIVO MEAT PRODUCTION” (WILD TYPE, INC., priority 2017, published 2020)
Entries after “also recorded” stand apart in the source; their conditions may differ.

Test system: duck hepatocytes
Experiment: Induction of steatosis in cultured duck hepatocytes by incubation with fatty acid
Type: cell-based

percentage of steatotic hepatocytes (2 μM linoleic acid, FIG. 16B): above 85%
SMILES: CCCCC/C=C\C/C=C\CCCCCCCC(=O)O [linoleic acid]
dose response: percentage of hepatocytes with steatosis versus concentration (0, 0.1, 0.25, 0.5, 1, 2 μm, FIG. 16B): corresponding increase in the percentage of hepatocytes with steatosis | induction of steatosis (accumulation of intracellular lipid-containing vesicles) (2 μM, compared to untreated control, FIG. 16A): successful induction of steatosis; also recorded: successfully induced to undergo steatosis
